Test results from patent publication US6569858B2, “12,13-(pyranosyl)-indolo[2,3-a]pyrrolo[3,4-c]carbazole and 12,13-(pyranosyl)-furo[3,4-c]indolo[2,3-a]carbazoles” (Les Laboratoires Servier, priority 1999, dated 2003).

Test system: murine leukaemia L1210
Assay: Murine leukaemia L1210 in vitro cytotoxicity (Microculture Tetrazolium Assay)
Assay type: cell-based
Settings: L1210, exposure 48 hours (four doubling periods); read-out: IC50, the cytotoxic concentration that inhibits proliferation of treated cells by 50%
Method: The murine leukaemia L1210 was used in vitro. The cells are cultured in complete RPMI 1640 culture medium comprising 10% foetal calf serum, 2 mM glutamine, 50 units/ml of penicillin, 50 μg/ml of streptomycin and 10 mM Hepes, pH 7.4. The cells are distributed on microplates and are exposed to the cytotoxic compounds for four doubling periods, that is to say 48 hours. The number of viable cells is then quantified by a colorimetric assay, the Microculture Tetrazolium Assay (J. Carmichael et al., Cancer Res., 47, 936-942, (1987)). The results are expressed as IC50, the cytotoxic concentration that inhibits proliferation of treated cells by 50%.

| SMILES | IC50 |
| --- | --- |
| COC1C(CO)OC2C(C1O)n1c3ccc(Br)cc3c3c4c(c5c6cc(Br)ccc6n2c5c31)C(=O)NC4=O [Example 19, 3,9-Dibromo-12,13-[1,2-(4—O-methyl-β-D-mannopyranosyl)]-6,7,12,13-tetrahydro-(5H)-indolo[2,3-a]pyrrolo[3,4-c]carbazole-5,7-dione] | 140 nM |
| COC1C(CO)OC2C(C1O)n1c3ccc([N+](=O)[O-])cc3c3c4c(c5c6cc([N+](=O)[O-])ccc6n2c5c31)C(=O)NC4=O [Example 13, 3,9-Dinitro-12,13-[1,2-(4—O-methyl-β-D-mannopyranosyl)]-6,7,12,13-tetrahydro-(5,H)-indolo[2,3-a]pyrrolo[3,4-c]carbazole-5,7-dione] | 130 nM |
